Data published in patent US20250161216A1, “CATIONIC LIPID ANALOGUES, COMPOSITIONS AND USES THEREOF” (GUANGZHOU LIDE BIOMEDICINE TECHNOLOGY CO., LTD., priority 2022, published 2025).

Key:
[1] = test system: C57BL/6 mice; test: In vivo expression level of Luciferase-mRNA delivered by intravenous injection (bioluminescence imaging); settings: mRNA-loaded nanoparticles, intravenous (tail vein), 5 μg Luciferase-mRNA, 6 hours; for Fluorescence intensity of liver / Bioluminescence intensity: compounds of Example 1
Procedure, shortened: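 Lipid nanoparticles carrying 5 μg Luciferase-mRNA given by tail-vein injection to 6-8-week-old C57BL/6 mice. At 6 h, 3 mg D-luciferin i.p. in PBS; bioluminescence imaged 10 min later as the expression read-out.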

[2] = test system: C57BL/6 mice; test: In vivo expression level of Luciferase-mRNA delivered by intramuscular injection (bioluminescence imaging); settings: mRNA-loaded nanoparticles, intramuscular (leg muscle), 5 μg Luciferase-mRNA, 6 hours
Method: Luciferase-mRNA was used as an mRNA model; and the cationic lipid analogues of Examples 1-5 were used to prepare drug-loaded nanoparticles according to the method of Example 6.
100 μL of nanoparticles containing 5 μg Luciferase-mRNA or the drug-loaded nanoparticles prepared above were injected into the leg muscles of 6-8 week-old C57BL/6 mice, and 200 μL of 1×PBS solution containing 3 mg D-Luciferin potassium salt was intraperitoneally injected into the mice 6 hours later. After waiting for 10 minutes, an in vivo expression level of the mRNA was evaluated by bioluminescence imaging.

SMILES	Fluorescence intensity of spleen ([1]; compounds of Example 2)	Local fluorescence intensity ([2]; compounds of Example 2)	Local fluorescence intensity ([2]; compounds of Example 1)	other results
CCCCCCCCCCSSCCC(=O)N(CCCC(=O)OC)C(C(=O)NCCN(CCNC(=O)C(C(C)C)N(CCCC(=O)OC)C(=O)CCSSCCCCCCCCCC)CCNC(=O)C(C(C)C)N(CCCC(=O)OC)C(=O)CCSSCCCCCCCCCC)C(C)C (stereo not drawn) [A1I5R38S15]	–	–	–	Fluorescence intensity of spleen ([1]; compounds of Example 3): 1.14E+05; Local fluorescence intensity ([2]; compounds of Example 3): 4.72E+04
CCCCCCCCCCSSCCC(=O)N(CCCCCO)C(C(=O)NCCN(CCNC(=O)C(C(C)C)N(CCCCCO)C(=O)CCSSCCCCCCCCCC)CCNC(=O)C(C(C)C)N(CCCCCO)C(=O)CCSSCCCCCCCCCC)C(C)C (stereo not drawn) [A1I5R27S15]	–	–	–	Fluorescence intensity of spleen ([1]; compounds of Example 3): 7.96E+05; Local fluorescence intensity ([2]; compounds of Example 3): 3.57E+05
CCCCCCCC/C=C\CCCCCCCC(=O)N(CCOC)C(C(=O)NCCN(C)CCNC(=O)C(C1CCCCC1)N(CCOC)C(=O)CCCCCCC/C=C\CCCCCCCC)C1CCCCC1 (stereo not drawn) [A23I4R23C18-1]	2.96E+05	5.87E+06	–	–
CCCCCCCCCCCCCCCCCC(=O)N(CCOC)C(C(=O)NCCN(C)CCNC(=O)C(C(C)C)N(CCOC)C(=O)CCCCCCCCCCCCCCCCC)C(C)C (stereo not drawn) [A1I4R23C18]	1.51E+05	7.53E+04	–	–
CCCCCCCCCCSSCCC(=O)N(CS(=O)(=O)O)C(C(=O)NCCN(CCNC(=O)C(C(C)C)N(CS(=O)(=O)O)C(=O)CCSSCCCCCCCCCC)CCNC(=O)C(C(C)C)N(CS(=O)(=O)O)C(=O)CCSSCCCCCCCCCC)C(C)C (stereo not drawn) [A1I5R41S15]	–	–	–	Fluorescence intensity of spleen ([1]; compounds of Example 3): 4.22E+05; Local fluorescence intensity ([2]; compounds of Example 3): 1.81E+05
CCCCCCCCCCCCCCCCCCNC(=O)C(C(CC)CCCC)N(CCN1CCCCC1)C(=O)CCCCCCCCCCCCCCCCC (stereo not drawn) [A4I18R12C18]	–	–	1.75E+05	Fluorescence intensity of liver [1]: 2.31E+03
CCCCC/C=C\C/C=C\CCCCCCCC(=O)N(CCN(CCN(C(=O)CCCCCCC/C=C\C/C=C\CCCCC)C(C(=O)NCCOC)C(C)C)CCN(C(=O)CCCCCCC/C=C\C/C=C\CCCCC)C(C(=O)NCCOC)C(C)C)C(C(=O)NCCOC)C(C)C (stereo not drawn) [A1I31R47C18-2]	–	–	–	Fluorescence intensity of spleen ([1]; compounds of Example 5): 6.90E+04; Local fluorescence intensity ([2]; compounds of Example 5): 2.24E+05
CCCCCCCCCCSSCCC(=O)N(C(C)C(=O)OC)C(C(=O)NCCN(CCNC(=O)C(C(C)C)N(C(=O)CCSSCCCCCCCCCC)C(C)C(=O)OC)CCNC(=O)C(C(C)C)N(C(=O)CCSSCCCCCCCCCC)C(C)C(=O)OC)C(C)C (stereo not drawn) [A1I5R40S15]	–	–	–	Fluorescence intensity of spleen ([1]; compounds of Example 3): 1.39E+04; Local fluorescence intensity ([2]; compounds of Example 3): 3.86E+05
CCCCC/C=C\C/C=C\CCCCCCCC(=O)N(CCC)C(C(=O)NCCN(C)CCNC(=O)C(C(C)C)N(CCC)C(=O)CCCCCCC/C=C\C/C=C\CCCCC)C(C)C (stereo not drawn) [A1I4R21C18-2]	6.62E+05	3.17E+05	–	–
CCCCCCCCCCCCCCCCCCNC(=O)C(C(CC)CCCC)N(CCCN(C)C)C(=O)CCCCCCCCCCCCCCCCC (stereo not drawn) [A4I18R2C18]	–	–	9.04E+05	Fluorescence intensity of liver [1]: 5.05E+05
CCCCC/C=C\C/C=C\CCCCCCCC(=O)N(CCCN(C)C)C(C(=O)NCCCCCCCCCCCCCCCCCC)C(CC)CCCC (stereo not drawn) [A4I18R2C18-2]	–	–	2.97E+07	Bioluminescence intensity [1]: 2.06E+07
CCCCC/C=C\C/C=C\CCCCCCCC(=O)N(CCN1CCCCC1)C(C(=O)NCCCCCCCCCCCCCCCCCC)C1CCCCC1 (stereo not drawn) [A23I18R12C18-2]	–	–	2.01E+06	Fluorescence intensity of liver [1]: 6.30E+03
CCCCC/C=C\C/C=C\CCCCCCCC(=O)N(CCN1CCCCC1)C(C(=O)NCCCCCCCCCCCCCCCCCC)C(CC)CCCC (stereo not drawn) [A4I18R12C18-2]	–	–	2.60E+05	Fluorescence intensity of liver [1]: 9.22E+03
CCCCCCCCCCCCCCCCCC(=O)N(CCOC)C(C(=O)NCCN(C)CCNC(=O)C(C1CCCCC1)N(CCOC)C(=O)CCCCCCCCCCCCCCCCC)C1CCCCC1 (stereo not drawn) [A23I4R23C18]	1.49E+05	5.32E+05	–	–
CCCCCCCCCCCCCCCCCC(=O)N(CCO)C(C(=O)NCCN(C)CCNC(=O)C(C(CC)CCCC)N(CCO)C(=O)CCCCCCCCCCCCCCCCC)C(CC)CCCC (stereo not drawn) [A4I4R22C18]	5.51E+05	5.53E+05	–	–
CCCCCCCC/C=C\CCCCCCCC(=O)N(CCOC)C(C(=O)NCCN(C)CCNC(=O)C(C(C)C)N(CCOC)C(=O)CCCCCCC/C=C\CCCCCCCC)C(C)C (stereo not drawn) [A1I4R23C18-1]	3.11E+05	1.77E+05	–	–
CCCCCCCC/C=C\CCCCCCCC(=O)N(CCN(C)C)C(C(=O)NCCCCCCCCCCCCCCCCCC)C(CC)CCCC (stereo not drawn) [A4I18R1C18-1]	–	–	1.54E+07	Bioluminescence intensity [1]: 1.39E+07
CCCCCCCC/C=C\CCCCCCCC(=O)N(CCC)C(C(=O)NCCN(C)CCNC(=O)C(C(C)C)N(CCC)C(=O)CCCCCCC/C=C\CCCCCCCC)C(C)C (stereo not drawn) [A1I4R21C18-1]	2.76E+05	2.26E+07	–	–
CCCCC/C=C\C/C=C\CCCCCCCC(=O)N(CCCN1CCOCC1)C(C(=O)NCCCCCCCCCCCCCCCCCC)C(C)C (stereo not drawn) [A1I18R5C18-2]	–	–	8.15E+04	Fluorescence intensity of liver [1]: 3.77E+03
CCCCCCCCCCSSCCC(=O)N(C1CCCCCC1)C(C(=O)NCCN(CCNC(=O)C(C(C)C)N(C(=O)CCSSCCCCCCCCCC)C1CCCCCC1)CCNC(=O)C(C(C)C)N(C(=O)CCSSCCCCCCCCCC)C1CCCCCC1)C(C)C (stereo not drawn) [A1I5R26S15]	–	–	–	Fluorescence intensity of spleen ([1]; compounds of Example 3): 1.30E+05; Local fluorescence intensity ([2]; compounds of Example 3): 9.90E+05
CCCCCCCC/C=C\CCCCCCCC(=O)N(CCO)C(C(=O)NCCN(C)CCNC(=O)C(C1CCCCC1)N(CCO)C(=O)CCCCCCC/C=C\CCCCCCCC)C1CCCCC1 (stereo not drawn) [A23I4R22C18-1]	6.57E+05	1.41E+05	–	–
CCCCCCCCCCCCCCCCCCNC(=O)C(C(C)C)N(CCCN(C)C)C(=O)CCCCCCCCCCCCCCCCC (stereo not drawn) [A1I18R2C18]	–	–	1.36E+05	Fluorescence intensity of liver [1]: 2.26E+04
CCCCCCCCCCCCCCCCCC(=O)N(CCO)C(C(=O)NCCN(C)CCNC(=O)C(C1CCCCC1)N(CCO)C(=O)CCCCCCCCCCCCCCCCC)C1CCCCC1 (stereo not drawn) [A23I4R22C18]	4.61E+05	3.41E+04	–	–
CCCCCCCCCCCCCCCCCCNC(=O)C(C(C)C)N(CCN1CCCCC1)C(=O)CCCCCCCCCCCCCCCCC (stereo not drawn) [A1I18R12C18]	–	–	4.37E+04	Bioluminescence intensity [1]: 9.34E+02
CCCCCCCCCCCCCCCCCC(=O)N(CCOC)C(C(=O)NCCN(C)CCNC(=O)C(C(CC)CCCC)N(CCOC)C(=O)CCCCCCCCCCCCCCCCC)C(CC)CCCC (stereo not drawn) [A4I4R23C18]	2.16E+05	6.36E+04	–	–
CCCCCCCCCCSSCCC(=O)N(CCOCCO)C(C(=O)NCCN(CCNC(=O)C(C(C)C)N(CCOCCO)C(=O)CCSSCCCCCCCCCC)CCNC(=O)C(C(C)C)N(CCOCCO)C(=O)CCSSCCCCCCCCCC)C(C)C (stereo not drawn) [A1I5R36S15]	–	–	–	Fluorescence intensity of spleen ([1]; compounds of Example 3): 3.27E+06; Local fluorescence intensity ([2]; compounds of Example 3): 8.27E+04
CCCCCCCCCCSSCCC(=O)N(C(C(=O)NCCN(CCNC(=O)C(C(C)C)N(C(=O)CCSSCCCCCCCCCC)C(CO)(CO)CO)CCNC(=O)C(C(C)C)N(C(=O)CCSSCCCCCCCCCC)C(CO)(CO)CO)C(C)C)C(CO)(CO)CO (stereo not drawn) [A1I5R30S15]	–	–	–	Fluorescence intensity of spleen ([1]; compounds of Example 3): 6.31E+04; Local fluorescence intensity ([2]; compounds of Example 3): 7.77E+04
